This experiment deals with T1, PILS-Nir1 (6xHis-tagged LNS2 domain of Nir1) (Homo sapiens, UniProt Q9BZ71).
T1 construct: gene PITPNM3; LNS2 (PILS) domain, residues 609-912 in Methods but 604-912 in Results; TEV-cleavable N-terminal 6xHis tag (pTHT), codon-optimised, expressed in E. coli BL21(DE3) RIPL
T1 sequence (Q9BZ71 609-912): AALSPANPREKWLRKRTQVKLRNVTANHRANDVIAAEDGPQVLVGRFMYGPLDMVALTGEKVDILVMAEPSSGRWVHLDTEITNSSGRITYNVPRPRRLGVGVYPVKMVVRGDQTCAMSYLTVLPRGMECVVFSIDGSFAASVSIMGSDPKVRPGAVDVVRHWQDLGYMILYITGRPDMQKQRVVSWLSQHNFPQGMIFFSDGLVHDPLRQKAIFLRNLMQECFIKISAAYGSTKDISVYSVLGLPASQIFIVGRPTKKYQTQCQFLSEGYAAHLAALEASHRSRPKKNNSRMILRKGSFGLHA
In words: liposome cosedimentation, SDS-PAGE densitometry. Conditions: 20 mol% PA / 80 mol% PC liposomes, 20 mM Tris pH 7.5, 150 mM NaCl; one-site fit with background; 95% C.I. 110.1–789.9 µM. It is filed as binding.

phosphatidic acid [PA] displayed a Kd of 422 µM.

The term Kd denotes a measure of binding affinity in units of concentration. A high value points to lower affinity.

The values are drawn from article PMC12419160 (The Journal of Cell Biology, 2025).
